Key:
Assay in all cases: Paddy herbicidal activity test
Type in all cases: in vivo
Scirpus juncoides = details: irrigated paddy pot, 30 days
Method: (§1) Rice paddy soil was filled into a 1/10000 are pot followed by the addition of suitable amounts of water and chemical fertilizer, kneading, seeding with Echinochloa crus-galli, Monochoria vaginalis and Scirpus juncoides and maintaining in an irrigated state at a water depth of 3 cm.
(§2) Wettable powder of Target Compound (I) shown in Table 1 prepared in compliance with the preparation examples were diluted with a suitable amount of water, rice plants in the 2.0 leaf stage were transplanted during 3.5 leaf stage of Echinochloa crus-galli, and treated by dropping in chemical in the prescribed amount per are using a pipette.
(§3) After treating for 30 days in a glass greenhouse at an average atmospheric temperature of 30° C., the herbicidal efficacy thereof was investigated.
(§4) Evaluation of herbicidal efficacy was carried out by comparing growth inhibition rate (%) with an untreated group, while evaluation of phytotoxicity was carried out by comparing growth inhibition rate (%) with the state of a complete eradication group, and were evaluated at 11 levels indicated below.

Monochoria vaginalis = details: irrigated paddy pot, 30 days
Method: as §1, §2, §3, §4

Echinochloa crus-galli = details: irrigated paddy pot, treated at 3.5 leaf stage of Echinochloa crus-galli, 30 days
Method: as §1, §2, §3, §4

| SMILES | Scirpus juncoides herbicidal efficacy (growth inhibition level) (Scirpus juncoides; 1g a.i./10a) | Scirpus juncoides herbicidal efficacy (growth inhibition level) (Scirpus juncoides; 5g a.i./10a) | Monochoria vaginalis herbicidal efficacy (growth inhibition level) (Monochoria vaginalis; 1g a.i./10a) | Monochoria vaginalis herbicidal efficacy (growth inhibition level) (Monochoria vaginalis; 5g a.i./10a) | Echinochloa crus-galli herbicidal efficacy (growth inhibition level) (Echinochloa crus-galli; 1g a.i./10a) | Echinochloa crus-galli herbicidal efficacy (growth inhibition level) (Echinochloa crus-galli; 5g a.i./10a) |
| --- | --- | --- | --- | --- | --- | --- |
| N#Cc1cnn(-c2nn3c(c2Cl)CCCC3)c1NCC(Cl)=CCl (mixture of isomers) [Compound 11] | 7 (7: 70% to less than 80%) | 8 (8: 80% to less than 90%) | 8 (8: 80% to less than 90%) | 9 (9: 90% to less than 100%) | 8 (8: 80% to less than 90%) | 9 (9: 90% to less than 100%) |
| N#Cc1cnn(-c2nn3c(c2Cl)CCCC3)c1N(CC(Cl)=CCl)C(=O)C(F)(F)F (mixture of isomers) [Compound 23] | 7 (7: 70% to less than 80%) | 8 (8: 80% to less than 90%) | 8 (8: 80% to less than 90%) | 9 (9: 90% to less than 100%) | 8 (8: 80% to less than 90%) | 9 (9: 90% to less than 100%) |
| CC=CCCN(C(=O)C(F)(F)F)c1c(C#N)cnn1-c1nn2c(c1Cl)CCCC2 (mixture of isomers) [Compound 26] | 7 (7: 70% to less than 80%) | 8 (8: 80% to less than 90%) | 8 (8: 80% to less than 90%) | 9 (9: 90% to less than 100%) | 9 (9: 90% to less than 100%) | 9 (9: 90% to less than 100%) |
| CC=CCNc1c([N+](=O)[O-])cnn1-c1nn2c(c1Cl)CCCC2 (mixture of isomers) [Compound 34] | 8 (8: 80% to less than 90%) | 8 (8: 80% to less than 90%) | 9 (9: 90% to less than 100%) | 9 (9: 90% to less than 100%) | 9 (9: 90% to less than 100%) | 9 (9: 90% to less than 100%) |
| CC=CCN(C(=O)C(F)(F)F)c1c([N+](=O)[O-])cnn1-c1nn2c(c1Cl)CCCC2 (mixture of isomers) [Compound 40] | 7 (7: 70% to less than 80%) | 8 (8: 80% to less than 90%) | 8 (8: 80% to less than 90%) | 8 (8: 80% to less than 90%) | 8 (8: 80% to less than 90%) | 9 (9: 90% to less than 100%) |
| N#Cc1cnn(-c2nn3c(c2Br)CCCC3)c1NCC(Cl)=CCl (mixture of isomers) [Compound 46] | 7 (7: 70% to less than 80%) | 8 (8: 80% to less than 90%) | 7 (7: 70% to less than 80%) | 8 (8: 80% to less than 90%) | 7 (7: 70% to less than 80%) | 8 (8: 80% to less than 90%) |
| CC=CCNc1c(C#N)cnn1-c1nn2c(c1Br)CCCC2 (mixture of isomers) [Compound 47] | 7 (7: 70% to less than 80%) | 8 (8: 80% to less than 90%) | 8 (8: 80% to less than 90%) | 9 (9: 90% to less than 100%) | 9 (9: 90% to less than 100%) | 10 (10: 100%) |

From patent US9593122B2, “Substituted pyrazolylpyrazole derivative and use of same as herbicide” (KYOYU AGRI CO., LTD., priority 2013, dated 2017)
